As a reminder, the LD50 is the dose expected to kill half of the subjects tested. Higher therefore signals lower toxicity.

Two molecules from patent publication US4012395A, “Process for preparing thiazolidinone acetic acid derivatives” (Warner-Lambert Company, priority 1974, dated 1977) can be followed below.

Bounds are passed on as bounds.

The nature of data set [1]: Toxicity (general statement). The note with it: in vivo.
Another data set deals with rats. The note with it: rat, in vivo.
The subject of data set [2] is diuresis of conscious dogs. In words: Diuresis in conscious dogs, intragastric administration. The note with it: for maximal achievable effect on the diuresis (urine excretion): 25.0 mg/kg. Format: in vivo, dog (unanesthetized adult female Beagle). The protocol: Experiments were carried out in 5 unanesthetized adult female Beagle dogs, weighing 15 to 22 kg, which were trained to lie on a table without fixation. The animals were not episiotomized. A rubber catheter was introduced into the bladder and excreted urine was collected separately for each animal and the volume measured in 30 minute intervals. After a constant urine flow was achieved, test substances were administered by stomach tube. The diuretics were diluted with saline solution so that a constant volume of 25 ml/kg was reached. Three animals received the test substances and two served as controls. The lowest dose of the diuretics administered was 1.56 mg/kg. Dosages were increased by a factor of 2 up to 50 mg/kg.

The test system of data set [3] is potassium excretion in dogs. The experiment in a line: Influence on potassium excretion (clearance experiments). Format: in vivo, dog. The note with it: anesthetized dogs, with higher amounts of sodium excreted. The protocol: Animals were anesthetized by 30.0 mg/kg pentobarbital intravenously. At the beginning of the experiment one saline solution was infused within 1 hour. In the urine which was collected by using a bladder catheter besides other parameters potassium and sodium concentrations were determined by flame photometry.

In another data set the test system is mice. The experiment in a line: Acute toxicity in mice, intragastric. Format: in vivo, mouse. The note with it: aqueous solution, within 48 hours.
The test system of data set [4] is urine excreted by each kidney, mongrel dogs. The experiment in a line: Diuresis in anesthetized dogs, intravenous administration. The note with it: i.v.; for urinary excretion / urinary flow increased to: 32.0 mg/kg; for dose dependency of diuretic effect, r: 2.0 up to 64.0 mg/kg. The data set is classed as in vivo, dog (male and female mongrel). The protocol:
Experiments were performed in male and female mongrel dogs, anesthetized with pentobarbital. The body weight was between 9 and 11 kg. After laparotomy the proximal part of the ureters was canulated and the urine excreted by each kidney collected in periods of 10 minutes. Arterial and venous pressure were recorded throughout the experiment. At the beginning 1.5 ml/kg of a tempered saline solution were infused for one and a half hour. After constant urine-flow was reached, the diuretics were injected into the femoral vein. The initial dose was 2.0 mg/kg which was increased with the factor 2 up to 64.0 mg/kg. Two animals were used for each dose level.

The next data set in a line: in vivo. The following applies: rat, iv.

On to `CN1C(=O)C(N2CCCCC2)SC1=CC(=O)O` (stereo not shown) [Example 3282, (Z)-3-Methyl-4-oxo-5N-piperidino-thiazolidin-2-ylidene-acetic acid], for which, in data set [1], the “acute toxicity (in words)” value was “very favorable”. The “dosage up to which no deaths were seen” value in the data set with rats is on record as ≥ 1,000 mg/kg. In addition, in data set [2], the “maximal achievable effect on the diuresis (urine excretion)” value came out at 10.9 ml/animal/min. Further, the “increase of potassium excretion, Furosemide versus […]” value in data set [3] is listed as “by far more increased with Furosemide than with 3282”. In the data set on mice, the “dosage up to which none of the animals died” value was ≥ 2,250 mg/kg. Also, in data set [4], the “urinary excretion / urinary flow increased to” value is reported as 16 ml/minute per animal and the “dose dependency of diuretic effect, r” value is 0.8799.

`CCOC(=O)/C=C1\SC(N2CCCCC2)C(=O)N1C` (stereo not drawn) [Etozolin, ethyl-3-methyl-4-oxo-5-piperidino-Δ^2,α -thiazolidineacetate]: the 50% lethal dose (LD50) in the data set “in vivo” was 56.6 mg/kg. In data set [2], the “maximal achievable effect on the diuresis (urine excretion)” value was 7.8 ml/animal/min. Moreover, the “effect of dose increase on urine excretion” value in data set [2] (above 25.0 mg/kg) is “does not result in a further increase of urine excretion”. Moreover, in data set [4], the “diuretic activity compared with 3282” value is listed as “far less active”; the “urinary excretion / urinary flow increased to” value stood at 2.25 ml/minute per animal; the “dose dependency of diuretic effect, r” value is given as 0.5583.
